Experimental data from ChEMBL document CHEMBL1201862, “PubChem BioAssay data set” (2004).
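Compound exposure: 48 hours, 5 concentrations, 96-well plates. Abbreviation: GI50, concentration required for 50% inhibition of growth.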 Active and inactive are the calls of the source. Cut-off read from the data, not from the text of the source: active = GI50 up to about 1.1 µM and inactive = higher.

Assays:
Experiment in all cases: growth of human tumour cells (NCI), 48 h
HCT-15 = tested on: HCT-15
DU-145 = tested on: DU-145
MCF7 = tested on: MCF7
OVCAR-8 = tested on: OVCAR-8
SF-295 = tested on: SF-295
U-251 = tested on: U-251
TK-10 = tested on: TK-10
SW-620 = tested on: SW-620
SF-539 = tested on: SF-539
KM12 = tested on: KM12
BT-549 = tested on: BT-549
K562 = tested on: K562
NCI-H226 = tested on: NCI-H226
Hs-578T = tested on: Hs-578T
SK-MEL-2 = tested on: SK-MEL-2
SK-OV-3 = tested on: SK-OV-3
SNB-75 = tested on: SNB-75
HCC 2998 = tested on: HCC 2998
UACC-62 = tested on: UACC-62
MDA-MB-435 = tested on: MDA-MB-435
NCI/ADR-RES = tested on: NCI/ADR-RES
Malme-3M = tested on: Malme-3M
A549 = tested on: A549
NCI-H460 = tested on: NCI-H460
COLO 205 = tested on: COLO 205
M14 = tested on: M14
A498 = tested on: A498
UO-31 = tested on: UO-31
T47D = tested on: T47D
CAKI-1 = tested on: CAKI-1
SK-MEL-5 = tested on: SK-MEL-5
OVCAR-3 = tested on: OVCAR-3
CCRF-CEM = tested on: CCRF-CEM
NCI-H23 = tested on: NCI-H23
SN12C = tested on: SN12C
MDA-MB-231 = tested on: MDA-MB-231
HOP-62 = tested on: HOP-62
IGROV-1 = tested on: IGROV-1
786-0 = tested on: 786-0
HL-60 = tested on: HL-60
MDA-N = tested on: MDA-N
PC-3 = tested on: PC-3
HCT-116 = tested on: HCT-116
NCI-H522 = tested on: NCI-H522
OVCAR-5 = tested on: OVCAR-5
HT-29 = tested on: HT-29
MOLT-4 = tested on: MOLT-4
SR = tested on: SR
SK-MEL-28 = tested on: SK-MEL-28
SNB-19 = tested on: SNB-19
UACC-257 = tested on: UACC-257
OVCAR-4 = tested on: OVCAR-4
RPMI-8226 = tested on: RPMI-8226
RXF 393 = tested on: RXF 393
EKVX = tested on: EKVX
SF-268 = tested on: SF-268
HOP-92 = tested on: HOP-92
ACHN = tested on: ACHN
LOX IMVI = tested on: LOX IMVI

Measured: GI50

O=C(N/N=C/c1ccc(O)cc1)NNCCO
> 100 µM: HCT-15
inactive: DU-145 > 100 µM | MCF7 > 100 µM | OVCAR-8 > 100 µM | SF-295 > 100 µM | U-251 > 100 µM | TK-10 > 100 µM | SW-620 > 100 µM | SF-539 > 100 µM | KM12 > 100 µM | BT-549 > 100 µM | K562 > 100 µM | NCI-H226 > 100 µM | Hs-578T > 100 µM | SK-MEL-2 > 100 µM | SK-OV-3 > 100 µM | SNB-75 50.5 µM | HCC 2998 > 100 µM | UACC-62 > 100 µM | MDA-MB-435 > 100 µM | NCI/ADR-RES > 100 µM | Malme-3M > 100 µM | A549 > 100 µM | NCI-H460 > 100 µM | COLO 205 > 100 µM | M14 > 100 µM | A498 > 100 µM | UO-31 > 100 µM | T47D > 100 µM | CAKI-1 > 100 µM | SK-MEL-5 > 100 µM | OVCAR-3 > 100 µM | CCRF-CEM > 100 µM | NCI-H23 > 100 µM | SN12C > 100 µM | MDA-MB-231 > 100 µM | HOP-62 > 100 µM | IGROV-1 > 100 µM | 786-0 > 100 µM | HL-60 > 100 µM | MDA-N > 100 µM | PC-3 > 100 µM | HCT-116 > 100 µM | NCI-H522 > 100 µM | OVCAR-5 > 100 µM | HT-29 > 100 µM | MOLT-4 > 100 µM | SR > 100 µM | SK-MEL-28 > 100 µM | SNB-19 > 100 µM | UACC-257 > 100 µM

c1ccc2c(c1)/C(=N\NC1=NCCN1)c1nc3ccccc3nc1-2
inactive: OVCAR-4 17.6 µM | DU-145 10.6 µM | MCF7 3.32 µM | OVCAR-8 1.35 µM | SF-295 2.45 µM | U-251 6.87 µM | TK-10 14.1 µM | SW-620 1.36 µM | SF-539 5.31 µM | KM12 3.88 µM | BT-549 20.9 µM | K562 4.52 µM | NCI-H226 3.63 µM | Hs-578T 16.6 µM | SK-OV-3 1.54 µM | HCC 2998 4.91 µM | UACC-62 2.49 µM | MDA-MB-435 6.32 µM | NCI/ADR-RES 5.85 µM | RXF 393 2.71 µM | Malme-3M 10.2 µM | A549 3.86 µM | NCI-H460 2.44 µM | COLO 205 2.17 µM | M14 6.65 µM | EKVX 12.9 µM | T47D 19 µM | SF-268 6.67 µM | SK-MEL-5 2.6 µM | OVCAR-3 3.24 µM | CCRF-CEM 3.8 µM | NCI-H23 8.73 µM | SN12C 8.51 µM | MDA-MB-231 10.5 µM | HOP-62 3.72 µM | IGROV-1 6.12 µM | HOP-92 2.58 µM | ACHN 3.21 µM | 786-0 3.91 µM | HL-60 3.83 µM | MDA-N 7.19 µM | PC-3 2.56 µM | NCI-H522 2.84 µM | OVCAR-5 6.64 µM | MOLT-4 1.13 µM | SR 3.98 µM | SK-MEL-28 13.5 µM | SNB-19 6.44 µM | UACC-257 5.31 µM
active: SNB-75 0.923 µM | RPMI-8226 1 µM | HCT-116 0.863 µM | HT-29 0.521 µM
3.52 µM: HCT-15

COc1ccc2c(c1)C1OCCNC1CC2 (centres undefined)
inactive: DU-145 > 100 µM | MCF7 > 100 µM | OVCAR-8 > 100 µM | SF-295 > 100 µM | U-251 > 100 µM | TK-10 > 100 µM | SW-620 > 100 µM | SF-539 > 100 µM | KM12 > 100 µM | BT-549 > 100 µM | K562 > 100 µM | NCI-H226 > 100 µM | Hs-578T > 100 µM | SK-MEL-2 > 100 µM | SK-OV-3 > 100 µM | SNB-75 > 100 µM | UACC-62 > 100 µM | MDA-MB-435 > 100 µM | NCI/ADR-RES > 100 µM | RPMI-8226 > 100 µM | RXF 393 > 100 µM | Malme-3M > 100 µM | LOX IMVI > 100 µM | A549 > 100 µM | COLO 205 > 100 µM | M14 > 100 µM | EKVX > 100 µM | A498 40.6 µM | UO-31 > 100 µM | T47D > 100 µM | SF-268 > 100 µM | CAKI-1 > 100 µM | SK-MEL-5 > 100 µM | CCRF-CEM > 100 µM | NCI-H23 > 100 µM | SN12C > 100 µM | MDA-MB-231 > 100 µM | HOP-62 > 100 µM | IGROV-1 > 100 µM | ACHN > 100 µM | 786-0 > 100 µM | HL-60 > 100 µM | MDA-N > 100 µM | PC-3 > 100 µM | HCT-116 > 100 µM | NCI-H522 > 100 µM | OVCAR-5 > 100 µM | HT-29 > 100 µM | MOLT-4 > 100 µM | SR > 100 µM | SK-MEL-28 > 100 µM | SNB-19 > 100 µM | UACC-257 > 100 µM
> 100 µM: HCT-15
